Data as given in patent US10881653B2, “Tricyclic compounds and their use in the treatment of cancer” (The United States of America, as represented by the …, priority 2015, dated 2021).
Structures can show the parent of a compound that is named as a salt.

Legend:
Experiment in all cases: Cell growth inhibition GI50
Assay type in all cases: cell-based
[1] = system: MDA-MB-435; settings: Homo sapiens, Melanoma
Procedure: (§1) Cell lines were plated 2000 cells/well in 96-well black optical plates in the presence of 10% FBS media containing 25 nM selenite. The following day cells were treated with various concentrations of the compound of Example 1 (0.1% DMSO final) and incubated for 72 hrs. After the incubation Cell-Quanti Blue reagent was added to each well and incubated for additional 3 hrs. Fluorescence was read ex:530 nm/em:590 nm, and percent of viability was determined using DMSO vehicle and no cell (blank) controls.
(§2) Further results obtained in similar experiments were as indicated below (GI50 refers to concentration of compound yielding 50% growth inhibition; E denotes an exponent to the base 10).

[2] = system: UO-31; settings: Homo sapiens, Renal Cancer
Procedure: as §1, §2

[3] = system: HS 5781; settings: Breast Cancer
Procedure: as §1, §2

[4] = system: SK-OV-3; settings: Homo sapiens, Ovarian Cancer
Procedure: as §1, §2

[5] = system: SN12C; settings: Homo sapiens, Renal Cancer
Procedure: as §1, §2

[6] = system: HCT-15; settings: Homo sapiens, Colon Cancer
Procedure: as §1, §2

[7] = system: OVCAR-3; settings: Homo sapiens, Ovarian Cancer
Procedure: as §1, §2

[8] = system: HL-60(TB); settings: Homo sapiens, Leukemia
Procedure: as §1, §2

[9] = system: HOP-62; settings: Homo sapiens, Non-Small Cell Lung Cancer
Procedure: as §1, §2

[10] = system: NCI-H322M; settings: Homo sapiens, Non-Small Cell Lung Cancer
Procedure: as §1, §2

[11] = system: SF-268; settings: Homo sapiens, CNS Cancer
Procedure: as §1, §2

[12] = system: OVCAR-4; settings: Homo sapiens, Ovarian Cancer
Procedure: as §1, §2

[13] = system: MOLT-4; settings: Homo sapiens, Leukemia
Procedure: as §1, §2

[14] = system: SNB-19; settings: Homo sapiens, CNS Cancer
Procedure: as §1, §2

[15] = system: SK-MEL-2; settings: Homo sapiens, Melanoma
Procedure: as §1, §2

[16] = system: UACC-62; settings: Homo sapiens, Melanoma
Procedure: as §1, §2

[17] = system: MDA-MB-231/ATCC; settings: Homo sapiens, Breast Cancer
Procedure: as §1, §2

[18] = system: NCI-H23; settings: Homo sapiens, Non-Small Cell Lung Cancer
Procedure: as §1, §2

[19] = system: RXF 393; settings: Homo sapiens, Renal Cancer
Procedure: as §1, §2

[20] = system: OVCAR-5; settings: Homo sapiens, Ovarian Cancer
Procedure: as §1, §2

[21] = system: HOP-92; settings: Homo sapiens, Non-Small Cell Lung Cancer
Procedure: as §1, §2

[22] = system: NCI/ADR-RES; settings: Homo sapiens, Ovarian Cancer
Procedure: as §1, §2

[23] = system: NCI-H226; settings: Homo sapiens, Non-Small Cell Lung Cancer
Procedure: as §1, §2

[24] = system: T-47D; settings: Homo sapiens, T47D, Breast Cancer
Procedure: as §1, §2

[25] = system: CCRF-CEM; settings: Homo sapiens, Leukemia
Procedure: as §1, §2

[26] = system: RPMI-8226; settings: Homo sapiens, Leukemia
Procedure: as §1, §2

[27] = system: COLO 205; settings: Homo sapiens, Colon Cancer
Procedure: as §1, §2

[28] = system: SF-539; settings: Homo sapiens, CNS Cancer
Procedure: as §1, §2

[29] = system: NCI-H460; settings: Homo sapiens, Non-Small Cell Lung Cancer
Procedure: as §1, §2

[30] = system: NCI-H522; settings: Homo sapiens, Non-Small Cell Lung Cancer
Procedure: as §1, §2

[31] = system: ACHN; settings: Homo sapiens, Renal Cancer
Procedure: as §1, §2

[32] = system: SR; settings: Homo sapiens, Leukemia
Procedure: as §1, §2

[33] = system: A498; settings: Homo sapiens, Renal Cancer
Procedure: as §1, §2

[34] = system: CAKI-1; settings: Homo sapiens, Renal Cancer
Procedure: as §1, §2

[35] = system: 786-0; settings: Homo sapiens, Renal Cancer
Procedure: as §1, §2

[36] = system: MCF7; settings: Homo sapiens, Breast Cancer
Procedure: as §1, §2

[37] = system: MDA-N; settings: Homo sapiens, Melanoma
Procedure: as §1, §2

[38] = system: HCC-2998; settings: Homo sapiens, Colon Cancer
Procedure: as §1, §2

[39] = system: HT29; settings: Homo sapiens, HT-29, Colon Cancer
Procedure: as §1, §2

[40] = system: TK-10; settings: Homo sapiens, Renal Cancer
Procedure: as §1, §2

[41] = system: M14; settings: Homo sapiens, Melanoma
Procedure: as §1, §2

[42] = system: K-562; settings: Homo sapiens, K562, Leukemia
Procedure: as §1, §2

[43] = system: SF-295; settings: Homo sapiens, CNS Cancer
Procedure: as §1, §2

[44] = system: SK-MEL-5; settings: Homo sapiens, Melanoma
Procedure: as §1, §2

[45] = system: KM12; settings: Homo sapiens, Colon Cancer
Procedure: as §1, §2

[46] = system: A549/ATCC; settings: Homo sapiens, Non-Small Cell Lung Cancer
Procedure: as §1, §2

[47] = system: MALME-3M; settings: Homo sapiens, Melanoma
Procedure: as §1, §2

[48] = system: HCT-116; settings: Homo sapiens, Colon Cancer
Procedure: as §1, §2

[49] = system: LOX IMVI; settings: Homo sapiens, Melanoma
Procedure: as §1, §2

Q: Which results are given for O=C1C=C[C@H]2[C@@H]3C(=O)N(c4ccccc4)C(=O)[C@@H]3[C@@H]1N2Cc1ccccc1 (relative stereo) [Example 1, exo-11-Benzyl-4-phenyl-4,11-diazatricyclo[5.3.1.0^2,6]undec-9-ene-3,5,8-trione Trifluoroacetate]?
A: GI50 [1]: 2720 nM; GI50 [2]: 3.42 µM; GI50 [3]: 3.51 µM; GI50 [4]: 13.2 µM; GI50 [5]: 1640 nM; GI50 [6]: 1740 nM; GI50 [7]: 3.44 µM; GI50 [8]: 1170 nM; GI50 [9]: 1380 nM; GI50 [10]: 10.2 µM; GI50 [11]: 3.34 µM; GI50 [12]: 5.53 µM; GI50 [13]: 1720 nM; GI50 [14]: 6.04 µM; GI50 [15]: 4.37 µM; GI50 [16]: 2010 nM; GI50 [17]: 5.45 µM; GI50 [18]: 5.37 µM; GI50 [19]: 2420 nM; GI50 [20]: 6.75 µM; GI50 [21]: 3.66 µM; GI50 [22]: 2550 nM; GI50 [23]: 7.26 µM; GI50 [24]: 4.92 µM; GI50 [25]: 942 nM; GI50 [26]: 1590 nM; GI50 [27]: 5.47 µM; GI50 [28]: 1660 nM; GI50 [29]: 3.49 µM; GI50 [30]: 2680 nM; GI50 [31]: 3.36 µM; GI50 [32]: 1870 nM; GI50 [33]: 8.57 µM; GI50 [34]: 4.09 µM; GI50 [35]: 1690 nM; GI50 [36]: 3.19 µM; GI50 [37]: 3.14 µM; GI50 [38]: 7.94 µM; GI50 [39]: 1790 nM; GI50 [40]: 8.07 µM; GI50 [41]: 2600 nM; GI50 [42]: 1670 nM; GI50 [43]: 6.41 µM; GI50 [44]: 3.56 µM; GI50 [45]: 2560 nM; GI50 [46]: 14.9 µM; GI50 [47]: 4.62 µM; GI50 [48]: 1560 nM; GI50 [49]: 1610 nM
